Legend:
male Wistar rats = settings: 10-25 mg/kg, literature; cited from earlier work
[1] = test system: male Syrian golden hamsters; test: golden hamster seed finding model of anxiety; format: in vivo, Mesocricetus auratus
Source text: Clavulanic acid (CLAV) is structurally similar to the beta-lactam antibiotics. A most robust and simple bioassay for screening beta-lactams for CNS activity is the golden hamster seed finding model of anxiety. Briefly, hamsters are deprived of food overnight. The following day they are exposed to the additional stress of being taken from their home cage and placed in a novel environment for a few minutes. This manipulation stimulates the release of the stress hormone cortisol (FIG. 13). During their absence from the home cage, sunflower seeds are hidden under the bedding in one of the corners. When returned to the home cage, hamsters routinely scramble along the walls for 1-2 min before settling down, locating and eating the seeds. However, animals treated with the benzodiazepine anxiolytic chlordiazepoxide find seeds in less than 10 sec.
Male, Syrian golden hamsters (Mesocricetus auratus) (120-130 g) obtained from Harlan Sprague-Dawley Laboratories (Indianapolis, Ind.) were housed individually in Plexiglas cages (24 cm×24 cm×20 cm), maintained on a reverse light:dark cycle (14L: 10D; lights on at 19:00 hr) and provided food and water ad libitum. A range of concentrations of CLAV (saline vehicle, 0.1, 1.0, 10, 100 1,000 ng/kg) were tested in six groups of hamsters (4-8/group)(FIG. 1). All tests were conducted during the dark phase of the circadian cycle under dim red illumination. Prior to testing all animals were fasted for 20-24 hrs. Ninety min after intraperitoneal (IP) injection of drug, animals were taken from their home cage and placed into a holding cage for 2 min. During their absence, six sunflower seeds were buried under the bedding in one corner of their home cage. Animals were placed back into their home cage randomly facing any one of the empty corners and timed for their latency to find the seeds in a five min observation period. Latency times were analyzed with a one-way ANOVA followed by Scheffe's post hoc tests. Assumption of equal variances was tested (Hartley's F-max=2.1 p>0.05)
It was hypothesized that CLAV functioned as an anxiolytic in the seed finding assay by blocking NAALADase activity in the brain. If this notion were true then it would be predicted that drugs known to block NAALADase should also enhance seed finding. To this end, animals were treated with N-acetyl-beta-aspartyl-glutamic acid (beta-NAAG), a competitive inhibitor of NAALADase (Serval et al., 1992) and tested in the seed finding model of anxiety. The study was similar to that outlined in Section I with one notable exception. […] Beta-NAAG (FW 304) was given in a dose of 3 ng in a volume of 1 μl saline ICV. The average adult hamster brain weights ca. 1.2 g of which 22% is extracellular fluid. The estimated beta-NAAG concentration was 11 ng/ml or 36 nM.
Two groups of six animals each were fasted overnight as previously described and tested the following day. One group was treated with beta-NAAG and the other saline vehicle and one hr later timed for latency to find the hidden sunflower seeds. A Student t-test for unpaired data was used for statistical comparisons.

[2] = test system: neurogenic peptidases (e.g., NAALADases); test: delivery of peptide directly into the brain, behavior; format: in vivo; settings: effective amounts directly into the brain
male golden hamsters = test: resident/intruder paradigm of offensive aggression; format: in vivo, hamster; settings: 3 ng ICV, after the seed finding assay
Source text: Agonistic behavior can be classified as either offensive or defensive aggression (Blanchard and Blanchard, 1977; Adams, […]; Albert and Walsh, 1984). Offensive aggression is characterized by an aggressor initiating an attack on an opponent; while, defensive aggression lacks active approach. Both types of aggression have their own unique neurobehavioral systems. The stimuli that elicit offensive and defense attack are different, as are the sequences of behaviors that accompany each agonistic response. […] Offensive aggression is easily studied using male golden hamsters tested in a resident/intruder paradigm, an established model of offensive aggression (Ferris and Potegal 1988) in the context of defending the home burrow. Placing an unfamiliar male hamster into the home cage of another male hamster elicits a well-defined sequence of agonistic behaviors from the resident that includes offensive aggression.
Hamsters are nocturnal and as such all behavioral tests were performed during the first four hrs of the dark phase under dim red illumination. The resident was scored for offensive aggression, e.g., latency to bite the intruder, the total number of bites, total contact time with the intruder and flank marking over a 10 min test period (Ferris and Potegal, 1988). Flank marking is a form of olfactory communication in which a hamsters arches its back and rubs pheromone producing flank glands against objects in the environment (Johnston, 1986).
Five male golden hamsters (130-140 g) were given IP injections of CLAV (200 μg/kg) and saline vehicle in a volume of ca. 0.2 ml. […] Vehicle and CLAV treatments were counter balanced and randomized so all five animals received each treatment separated by at least 48 hrs. Animals were tested 90 min after treatment over a 10 min observation period. Latencies and contact time were analyzed with a two-way ANOVA. Non-parametric data, i.e., number of bites and flank marks were analyzed by Wilcoxon matched-pairs signed-ranks test.
The animals tested in this study were those used in Section IX. After the seed finding assay, beta-NAAG (n=6) and saline vehicle (n=6) treated animals remained in their home cage and were presented with a smaller, male intruder. The resident was scored for latency to bite, bites, contact time and flank marking over a 10 min observation period. Latency to bite and contact time between treatments were compared with Student t-tests. Non-parametric measures of bites and flank marks for beta-NAAG vs vehicle were compared with Mann-Whitney.

[3] = in vivo; cited from earlier work

Compound: CNC1=Nc2ccc(Cl)cc2C(c2ccccc2)=[N+]([O-])C1 [CDP, Chlordiazepoxide]
- motor activity (male Wistar rats): depresses motor activity
- seed finding time ([1]; benzodiazepine anxiolytic, dose not given): less than 10 sec

Compound: Ala-D-γ-Glu-Lys-D-alanyl-D-alanine
- behavioral characteristics compared with β-lactam compounds [2]: produced the same modified behavioral characteristics

Compound: CC(=O)N[C@@H](CC(=O)N[C@@H](CCC(=O)O)C(=O)O)C(=O)O [beta-NAAG, N-acetyl-beta-aspartyl-glutamic acid]
- measures of offensive aggression (latency to bite, bites, contact time, flank marking) vs vehicle (male golden hamsters): no significant differences
- passage of the blood-brain barrier [3]: does not readily cross the blood-brain barrier
- difference in latency to find the seeds vs saline vehicle ([1]; 3 ng in 1 μl ICV, one hr): significantly (p<0.001) different

— US6610681B1, “Neurotherapeutic clavulanate composition and method” (Revaax Pharmaceuticals, LLC, priority 1999, dated 2003)
